Test results published in ChEMBL document CHEMBL3885861, “Open TG-GATES”.

Species on record: Rattus norvegicus
Experiment: Open TG-GATES - Regimen: Daily Repeat
Type: toxicity, organism-based, Sprague-Dawley
Parameters: regimen Daily Repeat, gender Male, age 6 weeks
Details: in vivo, po, route gavage; for APTT / Bas / Eos / Fbg / Hb / Ht / Lym / MCH / MCHC / MCV / Mono / Neu / PT / Plat / RBC / Ret / WBC: tissue Blood; for KIDNEY_L / KIDNEY_R / KIDNEY_TOTAL: tissue Kidney; for LIVER: tissue Liver; for ALP / ALT / AST / BUN / CRE / DBIL / GLC / IP / K / LDH / Na / PL / RALB / TBIL / TC / TG / TP / gamma-GTP: tissue Plasma
[1] = 100 mg/kg, 72 h, dose level Middle, time 3 day
[2] = 100 mg/kg, […], dose level Middle, time 7 day
[3] = 100 mg/kg, […], dose level Middle, time 14 day
[4] = 100 mg/kg, […], dose level Middle, time 28 day
[5] = 300 mg/kg, 72 h, dose level High, time 3 day
[6] = 300 mg/kg, […], dose level High, time 7 day
[7] = 300 mg/kg, […], dose level High, time 14 day
[8] = 300 mg/kg, […], dose level High, time 28 day

Clc1ccccc1CN1CCc2sccc2C1 [TICLOPIDINE]
TERMINAL_BW [1]: 224.9 g
APTT [1]: 21.3 s
Bas [1]: 1%
Eos [1]: 1%
Fbg [1]: 224 mg/dL
Hb [1]: 13.4 g/dL
Ht [1]: 37.8%
Lym [1]: 80.6%
MCH [1]: 21.5 pg
MCHC [1]: 35.5%
MCV [1]: 60.4 fL
Mono [1]: 2.6%
Neu [1]: 14.6%
PT [1]: 11.3 s
Plat [1]: 125.6 x10_4/uL
RBC [1]: 626.4 x10_4/ul
Ret [1]: 5.6%
WBC [1]: 100.7 x10_2/uL
KIDNEY_L [1]: 1 g
KIDNEY_R [1]: 1 g
KIDNEY_TOTAL [1]: 1.9 g
LIVER [1]: 11.8 g
ALP [1]: 968 IU/L
ALT [1]: 38.2 IU/L
AST [1]: 65.8 IU/L
BUN [1]: 15.4 mg/dL
CRE [1]: 0.4 mg/dL
DBIL [1]: 0.07 mg/dL
GLC [1]: 195.6 mg/dL
IP [1]: 7.3 mg/dL
K [1]: 4 meq/L
LDH [1]: 152.8 IU/L
Na [1]: 142.2 meq/L
PL [1]: 162.6 mg/dL
RALB [1]: 3.3 g/dL
TBIL [1]: 0.1 mg/dL
TC [1]: 89.8 mg/dL
TG [1]: 69.8 mg/dL
TP [1]: 5.5 g/dL
gamma-GTP [1]: 0.8 IU/L
TERMINAL_BW [2]: 258 g
TERMINAL_BW [3]: 306.1 g
TERMINAL_BW [4]: 394.5 g
APTT [2]: 22.3 s
Bas [2]: 0.6%
Eos [2]: 0.8%
Fbg [2]: 227.4 mg/dL
Hb [2]: 13.6 g/dL
Ht [2]: 38.2%
MCH [2]: 21.4 pg
MCHC [2]: 35.5%
MCV [2]: 60.4 fL
Mono [2]: 2.6%
Neu [2]: 13%
PT [2]: 11.6 s
Plat [2]: 123.7 x10_4/uL
RBC [2]: 633.2 x10_4/ul
Ret [2]: 5.4%
WBC [2]: 117.5 x10_2/uL
APTT [3]: 19.9 s
Bas [3]: 0.8%
Eos [3]: 0.8%
Fbg [3]: 220.4 mg/dL
Hb [3]: 14.5 g/dL
Ht [3]: 40.6%
Lym [3]: 80.6%
MCH [3]: 21.3 pg
MCHC [3]: 35.7%
MCV [3]: 59.6 fL
Mono [3]: 2.2%
Neu [3]: 15.4%
PT [3]: 11.8 s
Plat [3]: 114.3 x10_4/uL
RBC [3]: 681 x10_4/ul
Ret [3]: 4.3%
WBC [3]: 108.6 x10_2/uL
APTT [4]: 18.7 s
Bas [4]: 1%
Eos [4]: 0.8%
Fbg [4]: 219.8 mg/dL
Hb [4]: 15.3 g/dL
Ht [4]: 41.1%
Lym [4]: 81.6%
MCH [4]: 20 pg
MCHC [4]: 37.4%
MCV [4]: 53.4 fL
Mono [4]: 2.2%
Neu [4]: 13.6%
PT [4]: 11.6 s
Plat [4]: 114.7 x10_4/uL
RBC [4]: 770 x10_4/ul
Ret [4]: 3%
WBC [4]: 136.4 x10_2/uL
KIDNEY_L [2]: 1.2 g
KIDNEY_R [2]: 1.2 g
KIDNEY_TOTAL [2]: 2.3 g
KIDNEY_L [3]: 1.2 g
KIDNEY_R [3]: 1.2 g
KIDNEY_TOTAL [3]: 2.5 g
KIDNEY_L [4]: 1.5 g
KIDNEY_R [4]: 1.5 g
KIDNEY_TOTAL [4]: 3 g
LIVER [2]: 13 g
LIVER [3]: 14.1 g
LIVER [4]: 17.9 g
ALP [2]: 969.2 IU/L
ALT [2]: 39.4 IU/L
AST [2]: 73.2 IU/L
BUN [2]: 14.8 mg/dL
CRE [2]: 0.4 mg/dL
DBIL [2]: 0.068 mg/dL
GLC [2]: 192.6 mg/dL
IP [2]: 7.2 mg/dL
K [2]: 3.9 meq/L
LDH [2]: 144.8 IU/L
Na [2]: 142.4 meq/L
PL [2]: 145.4 mg/dL
RALB [2]: 3.5 g/dL
TBIL [2]: 0.1 mg/dL
TC [2]: 74.8 mg/dL
TG [2]: 68.2 mg/dL
TP [2]: 5.7 g/dL
gamma-GTP [2]: 0.8 IU/L
ALP [3]: 792.6 IU/L
ALT [3]: 36.6 IU/L
AST [3]: 68.8 IU/L
BUN [3]: 15.8 mg/dL
CRE [3]: 0.4 mg/dL
DBIL [3]: 0.06 mg/dL
GLC [3]: 205 mg/dL
IP [3]: 7.5 mg/dL
K [3]: 3.8 meq/L
LDH [3]: 161.8 IU/L
Na [3]: 143.4 meq/L
PL [3]: 152.2 mg/dL
RALB [3]: 3.4 g/dL
TBIL [3]: 0.098 mg/dL
TC [3]: 78.8 mg/dL
TG [3]: 94.2 mg/dL
TP [3]: 5.7 g/dL
gamma-GTP [3]: 1 IU/L
ALP [4]: 625.8 IU/L
ALT [4]: 44 IU/L
AST [4]: 71.6 IU/L
BUN [4]: 17.6 mg/dL
CRE [4]: 0.5 mg/dL
DBIL [4]: 0.072 mg/dL
GLC [4]: 202.8 mg/dL
IP [4]: 7.5 mg/dL
K [4]: 3.8 meq/L
LDH [4]: 152.4 IU/L
Na [4]: 142.2 meq/L
PL [4]: 154.8 mg/dL
RALB [4]: 3.6 g/dL
TBIL [4]: 0.1 mg/dL
TC [4]: 76.8 mg/dL
TG [4]: 82.8 mg/dL
TP [4]: 6.3 g/dL
gamma-GTP [4]: 0.8 IU/L
TERMINAL_BW [5]: 211.5 g
APTT [5]: 25.4 s
Bas [5]: 0.6%
Eos [5]: 0.8%
Fbg [5]: 212.6 mg/dL
Hb [5]: 13.7 g/dL
Ht [5]: 38.5%
Lym [5]: 84%
MCH [5]: 21.4 pg
MCHC [5]: 35.5%
MCV [5]: 60.1 fL
Mono [5]: 2.6%
Neu [5]: 11.2%
PT [5]: 12.4 s
Plat [5]: 149.4 x10_4/uL
RBC [5]: 640.4 x10_4/ul
Ret [5]: 3.5%
WBC [5]: 84 x10_2/uL
KIDNEY_L [5]: 1.1 g
KIDNEY_R [5]: 1 g
KIDNEY_TOTAL [5]: 2.1 g
LIVER [5]: 13 g
ALP [5]: 1140 IU/L
ALT [5]: 40.2 IU/L
AST [5]: 68.6 IU/L
BUN [5]: 13.8 mg/dL
CRE [5]: 0.4 mg/dL
DBIL [5]: 0.084 mg/dL
GLC [5]: 175.4 mg/dL
IP [5]: 7 mg/dL
K [5]: 4 meq/L
LDH [5]: 134.6 IU/L
Na [5]: 142 meq/L
PL [5]: 163.2 mg/dL
RALB [5]: 3.2 g/dL
TBIL [5]: 0.1 mg/dL
TC [5]: 93 mg/dL
TG [5]: 55.6 mg/dL
TP [5]: 5.2 g/dL
gamma-GTP [5]: 1.6 IU/L
TERMINAL_BW [6]: 243.3 g
TERMINAL_BW [7]: 287.4 g
TERMINAL_BW [8]: 349.5 g
APTT [6]: 25.4 s
Bas [6]: 0.4%
Eos [6]: 1%
Fbg [6]: 249.2 mg/dL
Hb [6]: 13.3 g/dL
Ht [6]: 37.1%
Lym [6]: 73.6%
MCH [6]: 20.6 pg
MCHC [6]: 35.8%
MCV [6]: 57.3 fL
Mono [6]: 3%
Neu [6]: 20.8%
PT [6]: 12.5 s
Plat [6]: 141.7 x10_4/uL
RBC [6]: 646.4 x10_4/ul
Ret [6]: 4.9%
WBC [6]: 116.7 x10_2/uL
APTT [7]: 27.3 s
Bas [7]: 0.6%
Eos [7]: 1%
Fbg [7]: 229.6 mg/dL
Hb [7]: 14.1 g/dL
Ht [7]: 39.4%
Lym [7]: 82.4%
MCH [7]: 20.9 pg
MCHC [7]: 35.9%
MCV [7]: 58.1 fL
Mono [7]: 2.2%
Neu [7]: 12.8%
PT [7]: 12.5 s
Plat [7]: 123 x10_4/uL
RBC [7]: 679 x10_4/ul
Ret [7]: 4.4%
WBC [7]: 118.3 x10_2/uL
APTT [8]: 22.4 s
Bas [8]: 0.8%
Eos [8]: 1.4%
Fbg [8]: 261.8 mg/dL
Hb [8]: 14.8 g/dL
Ht [8]: 39.8%
Lym [8]: 77.4%
MCH [8]: 19.7 pg
MCHC [8]: 37.1%
MCV [8]: 53.3 fL
Mono [8]: 2.4%
Neu [8]: 17.6%
PT [8]: 11.8 s
Plat [8]: 108.6 x10_4/uL
RBC [8]: 747.8 x10_4/ul
Ret [8]: 3.2%
WBC [8]: 125.4 x10_2/uL
KIDNEY_L [6]: 1.1 g
KIDNEY_R [6]: 1.1 g
KIDNEY_TOTAL [6]: 2.2 g
KIDNEY_L [7]: 1.3 g
KIDNEY_R [7]: 1.3 g
KIDNEY_TOTAL [7]: 2.6 g
KIDNEY_L [8]: 1.5 g
KIDNEY_R [8]: 1.5 g
KIDNEY_TOTAL [8]: 3.1 g
LIVER [6]: 14.1 g
LIVER [7]: 16.6 g
LIVER [8]: 20 g
ALP [6]: 768.8 IU/L
ALT [6]: 49.8 IU/L
AST [6]: 78 IU/L
BUN [6]: 15.8 mg/dL
CRE [6]: 0.4 mg/dL
DBIL [6]: 0.084 mg/dL
GLC [6]: 172.6 mg/dL
IP [6]: 7.3 mg/dL
K [6]: 4.1 meq/L
LDH [6]: 186 IU/L
Na [6]: 142.4 meq/L
PL [6]: 222.6 mg/dL
RALB [6]: 3.5 g/dL
TBIL [6]: 0.1 mg/dL
TC [6]: 126.8 mg/dL
TG [6]: 67.4 mg/dL
TP [6]: 6 g/dL
gamma-GTP [6]: 1.8 IU/L
ALP [7]: 721.2 IU/L
ALT [7]: 35.2 IU/L
AST [7]: 62.4 IU/L
BUN [7]: 15.2 mg/dL
CRE [7]: 0.4 mg/dL
DBIL [7]: 0.08 mg/dL
GLC [7]: 201.4 mg/dL
IP [7]: 8.4 mg/dL
K [7]: 3.9 meq/L
LDH [7]: 141 IU/L
Na [7]: 142.2 meq/L
PL [7]: 182.8 mg/dL
RALB [7]: 3.4 g/dL
TBIL [7]: 0.1 mg/dL
TC [7]: 99.2 mg/dL
TG [7]: 53.6 mg/dL
TP [7]: 6 g/dL
gamma-GTP [7]: 2.4 IU/L
ALP [8]: 578.4 IU/L
ALT [8]: 47 IU/L
AST [8]: 67.6 IU/L
BUN [8]: 16.8 mg/dL
CRE [8]: 0.5 mg/dL
DBIL [8]: 0.086 mg/dL
GLC [8]: 197 mg/dL
IP [8]: 7.9 mg/dL
K [8]: 4 meq/L
LDH [8]: 196.6 IU/L
Na [8]: 141.6 meq/L
PL [8]: 206 mg/dL
RALB [8]: 3.7 g/dL
TBIL [8]: 0.1 mg/dL
TC [8]: 116.4 mg/dL
TG [8]: 62.4 mg/dL
TP [8]: 6.5 g/dL
gamma-GTP [8]: 2.6 IU/L
